Source: US10669252B2, “Benzazepine derivative, preparation method, pharmaceutical composition and use thereof” (SHANGHAI DE NOVO PHARMATECH CO., LTD., priority 2016, dated 2020)

Legend:
TLR8 = molecular target: T1, TLR8 (Homo sapiens, UniProt Q9NR97); test: TLR8 cell based assay (HEK-BLUE-hTLR8, SEAP reporter linked to NF-κB activation); conditions: HEK-BLUE-hTLR8 cells
T1 construct: host or cells: HEK293 (HEK-BLUE-hTLR8)
T1 sequence (Q9NR97 27-1041): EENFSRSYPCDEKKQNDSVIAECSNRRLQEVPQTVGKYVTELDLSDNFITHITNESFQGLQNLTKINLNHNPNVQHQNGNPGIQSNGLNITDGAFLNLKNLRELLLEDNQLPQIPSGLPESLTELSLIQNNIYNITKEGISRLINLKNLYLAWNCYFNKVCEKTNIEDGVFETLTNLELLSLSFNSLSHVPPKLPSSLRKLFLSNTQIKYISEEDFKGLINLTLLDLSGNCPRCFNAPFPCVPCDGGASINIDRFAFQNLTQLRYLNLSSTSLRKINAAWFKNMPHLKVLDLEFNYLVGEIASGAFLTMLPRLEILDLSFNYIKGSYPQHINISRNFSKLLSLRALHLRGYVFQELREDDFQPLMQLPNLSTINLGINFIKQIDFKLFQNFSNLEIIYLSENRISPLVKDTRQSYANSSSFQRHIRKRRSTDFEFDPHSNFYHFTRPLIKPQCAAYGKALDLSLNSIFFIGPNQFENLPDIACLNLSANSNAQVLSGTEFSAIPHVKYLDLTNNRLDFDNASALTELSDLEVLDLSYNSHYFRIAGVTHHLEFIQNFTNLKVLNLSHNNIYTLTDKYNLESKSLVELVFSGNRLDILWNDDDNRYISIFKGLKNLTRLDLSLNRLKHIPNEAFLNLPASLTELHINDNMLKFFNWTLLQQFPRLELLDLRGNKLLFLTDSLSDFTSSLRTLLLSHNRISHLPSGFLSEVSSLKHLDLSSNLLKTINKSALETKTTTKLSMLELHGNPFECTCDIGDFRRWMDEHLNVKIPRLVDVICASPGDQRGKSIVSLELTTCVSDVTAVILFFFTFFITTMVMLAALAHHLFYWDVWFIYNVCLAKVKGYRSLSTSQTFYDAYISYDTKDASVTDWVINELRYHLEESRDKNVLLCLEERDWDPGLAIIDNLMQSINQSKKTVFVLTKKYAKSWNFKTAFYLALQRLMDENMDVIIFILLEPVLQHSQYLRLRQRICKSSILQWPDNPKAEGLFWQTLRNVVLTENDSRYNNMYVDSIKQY
Method: (§1) In this assay, the bioactivity of compound of formula Iw as measured using a cell based assay. The assay was performed in human embryonic kidney cells (HEK293) expressing TLR8 or other TLR family members such as TLR4, TLR7 and TLR9 (for selectivity screens). The activity of specific TLR agonists was assessed using the secretory embryonic alkaline phosphatase (SEAP) reporter gene that is linked to NF-κB activation in response to TLR stimulation. The SEAP activity was measured using the Quanti-Blue substrate (InvivoGen) after TLR agonist treatment.
(§2) The detailed experimental method is as follow:
HEK-BLUE-hTLR8 cell line was purchased from InvivoGen. The cells were cultured in Dulbecco's Modified Eagle's Media containing 4.5 g/L […] (Sigma-Aldrich) and 10% FBS. The cells were cultured at 37° C., 95% humidity and 5% CO2.
Test concentrations of the compounds ranged from 0.5 nM to 15 μM with 10 points. A known TLR8 agonist was added as positive control and 1 μl of DMSO was added as negative control.
(§3) The cells were prepared as follows: The cells were removed from the incubator and growth medium was discarded. The cells were gently rinsed with pre-warmed 10 ml PBS for a T-150 flask. 12 ml pre-warmed growth medium was added, and the cells were detached by tapping the flask. Cell clumps were dissociated by gently pipetting up and down. The cells were counted. Single cell suspension was prepared at 200,000 cells per ml in growth medium and 200 μl of the cell suspension (40,000 cells per well) were immediately added to each well of the plate. The final DMSO concentration of each well was 0.5%.
The cells were cultured and treated with the compounds at 37° C., 5% CO2 for 24 h.
(§4) 20 μL of the supernatant of each well were added to 180 μL of QUANTI-Blue, and the plates were incubated at 37° C. for 1.5 hour. Optical density was measured using a spectrophotometer at 650 nm (OD data). Activivation was calculated by using the equation below: Activivation %=(Compound OD mean value−DMSO OD mean value)/(positive control OD mean value−DMSO OD mean value)×100
(§5) The data were analyzed using the GraphPad to get EC50 values and fitting dose response curves of the compounds.

TLR7 = molecular target: T2, TLR7 (Homo sapiens, UniProt Q9NYK1); test: TLR7 cell based assay (HEK-BLUE-hTLR7, SEAP reporter linked to NF-κB activation); conditions: HEK-BLUE-hTLR7 cells, 24 hours treatment, SEAP/QUANTI-Blue readout
T2 construct: host or cells: HEK293 (HEK-BLUE-hTLR7)
T2 sequence (Q9NYK1 27-1049): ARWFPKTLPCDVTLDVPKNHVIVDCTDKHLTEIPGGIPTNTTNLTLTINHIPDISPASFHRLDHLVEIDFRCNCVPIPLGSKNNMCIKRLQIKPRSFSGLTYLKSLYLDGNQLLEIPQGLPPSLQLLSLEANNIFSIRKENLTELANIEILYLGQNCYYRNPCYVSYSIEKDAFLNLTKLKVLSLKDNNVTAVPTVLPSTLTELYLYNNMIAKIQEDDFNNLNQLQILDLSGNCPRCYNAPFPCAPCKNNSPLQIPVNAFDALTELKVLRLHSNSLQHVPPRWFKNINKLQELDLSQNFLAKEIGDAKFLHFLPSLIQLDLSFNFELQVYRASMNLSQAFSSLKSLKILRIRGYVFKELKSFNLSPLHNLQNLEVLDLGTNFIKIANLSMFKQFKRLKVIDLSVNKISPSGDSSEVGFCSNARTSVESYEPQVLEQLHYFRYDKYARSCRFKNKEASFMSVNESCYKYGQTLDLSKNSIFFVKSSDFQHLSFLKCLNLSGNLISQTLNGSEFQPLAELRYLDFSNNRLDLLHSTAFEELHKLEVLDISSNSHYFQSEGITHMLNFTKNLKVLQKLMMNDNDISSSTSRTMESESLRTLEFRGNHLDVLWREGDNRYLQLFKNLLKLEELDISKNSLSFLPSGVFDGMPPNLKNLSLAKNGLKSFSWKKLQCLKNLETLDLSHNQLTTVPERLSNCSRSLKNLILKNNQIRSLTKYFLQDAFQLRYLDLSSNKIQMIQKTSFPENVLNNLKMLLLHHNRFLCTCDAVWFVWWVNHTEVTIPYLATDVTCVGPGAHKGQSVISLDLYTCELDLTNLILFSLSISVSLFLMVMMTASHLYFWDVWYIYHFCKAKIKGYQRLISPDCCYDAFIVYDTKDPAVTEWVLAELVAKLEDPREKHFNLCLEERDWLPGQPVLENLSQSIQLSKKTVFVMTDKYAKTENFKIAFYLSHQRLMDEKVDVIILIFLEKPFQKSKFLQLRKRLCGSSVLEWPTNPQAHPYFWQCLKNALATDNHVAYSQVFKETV
Method: as §1, with “(I) was” for “Iw as”, “TLR7” for “TLR8”, “TLR4,” for “TLR4, TLR7”
as §2
HEK-BLUE-hTLR7 cell line was purchased from InvivoGen. The cells were cultured in Dulbecco's Modified Eagle's Media containing 4.5 g/L […] (Sigma-Aldrich) and 10% FBS. The cells were cultured at 37° C., 95% humidity and 5% CO2.
[…] A known TLR8 agonist was added as positive control and 1 μl of DMSO was added as negative control.
as §3, with “follows.” for “follows:”
The cells were cultured and treated with the compounds at 37° C., 5% CO2 for 24 hours.
as §4, §5

[1] = 24 h treatment, SEAP/QUANTI-Blue readout

EC50 (TLR8; [1]) [µM]	EC50 (TLR8; bound stated) [µM]	EC50 (TLR7) [µM]	SMILES
< 0.1	< 0.01	> 50	CCCN(CCC)C(=O)C1=Cc2ccc(-c3ccc4c(=O)n(CCS(C)(=O)=O)ncc4c3)cc2N=C(N)C1 [Compound 1-8-5]
0.1 to 1		> 50	CCCN(CCC)C(=O)C1=Cc2ccc(-c3ccc4c(=O)n(CCS(C)(=O)=O)c(=O)n(C)c4c3)cc2N=C(N)C1 [Compound 1-9-4]
< 0.1		1 to 10	CCCN(CCC)C(=O)C1=Cc2c(F)cc(-c3ccc4c(=O)n(CC(=O)N(C)C)ccc4c3)cc2N=C(N)C1 [Compound 1-10-9]
< 0.1		10 to 50	CCCN(CCC)C(=O)C1=Cc2c(C)cc(-c3ccc4c(=O)n(CCS(C)(=O)=O)ncc4c3)cc2N=C(N)C1 [Compound 2-2-2]
< 0.1		10 to 50	CCCN(CCC)C(=O)C1=Cc2ccc(-c3ccc4c(=O)n(Cc5ncco5)ncc4c3)cc2N=C(N)C1 [Compound 1-8-15]
< 0.1		> 50	CCCN(CCC)C(=O)C1=Cc2ccc(-c3ccc4c(=O)n(CCO)c(=O)n(C)c4c3)cc2N=C(N)C1 [Compound 1-9-1]
< 0.1		> 50	CCCN(CCC)C(=O)C1=Cc2ccc(-c3ccc4c(=O)n(CC(=O)NC)c(=O)n(C)c4c3)cc2N=C(N)C1 [Compound 1-9-2]
< 0.1		> 50	CCCN(CCC)C(=O)C1=Cc2ccc(-c3ccc4c(=O)n(CC(C)(C)O)ncc4c3)cc2N=C(N)C1 [Compound 1-8-4]
< 0.1		10 to 50	CCCN(CCC)C(=O)C1=Cc2ccc(-c3ccc4c(=O)n(CCS(=O)(=O)CC)ncc4c3)cc2N=C(N)C1 [Compound 1-8-12]
< 0.1		> 50	CCCN(CCC)C(=O)C1=Cc2c(F)cc(-c3ccc4c(=O)n(CC(N)=O)ccc4c3)cc2N=C(N)C1 [Compound 1-10-1]

The remaining lines, values behind:

SMILES	EC50 (TLR8; [1]) [µM]	EC50 (TLR8; bound stated) [µM]	EC50 (TLR7) [µM]
CCCN(CCC)C(=O)C1=Cc2ccc(-c3ccc4c(c3)CCN(CC(C)(C)O)C4=O)cc2N=C(N)C1 [Compound 1-4-2]	< 0.1		> 50
CCCN(CCC)C(=O)C1=Cc2ccc(-c3ccc4c(=O)n(CCOC)ccc4c3)cc2N=C(N)C1 [Compound 1-2-14]	< 0.1		> 50
CCCN(CCC)C(=O)C1=Cc2ccc(-c3ccc4c(c3)CCN(CCO)C4=O)cc2N=C(N)C1 [Compound 1-4-10]	0.1 to 1		> 50
CCCN(CCC)C(=O)C1=Cc2ccc(-c3ccc4c(=O)n(CC(N)=O)ccc4c3)cc2N=C(N)C1 [Compound 1-2-10]	< 0.1		> 50
CCCN(CCC)C(=O)C1=Cc2ccc(-c3ccc4c(=O)n(Cc5ncco5)ccc4c3)cc2N=C(N)C1 [Compound 1-2-28]	< 0.1		10 to 50
CCCN(CCC)C(=O)C1=Cc2ccc(-c3ccc4c(=O)n(CC(N)=O)ncc4c3)cc2N=C(N)C1 [Compound 1-8-1]	< 0.1		> 50
CCCN(CCC)C(=O)C1=Cc2ccc(-c3ccc4c(=O)n(CC(=O)NC)ncc4c3)cc2N=C(N)C1 [Compound 1-8-2]	< 0.1		> 50
CCCN(CCC)C(=O)C1=Cc2ccc(-c3ccc4c(=O)n(Cc5nccn5C)ccc4c3)cc2N=C(N)C1 [Compound 1-2-33]	< 0.1		> 50
CCCN(CCC)C(=O)C1=Cc2ccc(-c3ccc4c(=O)n(Cc5nncn5C)ccc4c3)cc2N=C(N)C1 [Compound 1-2-36]	< 0.1		10 to 50
CCCN(CCC)C(=O)C1=Cc2ccc(-c3ccc4c(=O)n(CCO)cnc4c3)cc2N=C(N)C1 [Compound 1-7-4]	< 0.1		> 50
CCCN(CCC)C(=O)C1=Cc2ccc(-c3ccc4c(=O)n(Cc5nnnn5C)ccc4c3)cc2N=C(N)C1 [Compound 1-2-40]	< 0.1	< 0.01	> 50
CCCN(CCC)C(=O)C1=Cc2ccc(-c3ccc4c(=O)n(CCN)ccc4c3)cc2N=C(N)C1 [Compound 1-2-17]	< 0.1		> 50
CCCN(CCC)C(=O)C1=Cc2ccc(-c3ccc4c(=O)n(CC(C)(C)O)c(C)cc4c3)cc2N=C(N)C1 [Compound 1-2-9]	< 0.1		> 50
CCCN(CCC)C(=O)C1=Cc2ccc(-c3ccc4c(c3)CN(CCO)C4=O)cc2N=C(N)C1 [Compound 1-3-2]	< 0.1		> 50
CCCN(CCC)C(=O)C1=Cc2ccc(-c3ccc4c(=O)n(CC(=O)NC)ccc4c3)cc2N=C(N)C1 [Compound 1-2-21]	< 0.1		> 50
